Assays:
Assay in all cases: Ba/F3 drug screening, Cell Titer Glo, IC50 Mut/WT
Type in all cases: cell-based
[1] = biological target: T1, EGFR S768dupSVD V769M (Homo sapiens, UniProt P00533, INS768MDS/V769M); conditions: Ex20, 72 hours
T1 construct: expressed in transfected cells; host or cells: Ba/F3 cells, retroviral pBabe-Puro vector (vector made by GeneScript from EGFR S768dupSVD, c.2305G > A)

[2] = biological target: T2, EGFR L718Q (Homo sapiens, UniProt P00533, L718Q)
T2 construct: expressed in transfected cells; host or cells: Ba/F3
Description: (§1) Data represent the ratio of the IC50 value for a given TKI for cells with a PACC EGFR mutation to the IC50 value for cells with wildtype EGFR.
(§2) Ba/F3 cell generation, drug screening, and IC50 approximations. Ba/F3 cells were obtained as a gift from Dr. Gordon Mills (MD Anderson Cancer Center), and maintained in RPMI (Sigma) containing 10% FBS, 1% penicillin/streptomycin, and 10 ng/ml recombinant mIL-3 (R&D Biosystems). To establish stable Ba/F3 cell lines, Ba/F3 cells were transduced with retroviruses containing mutant EGFR plasmids for 12-24 hours.
(§3) After 48-72 hours of transduction, 2 μg/ml puromycin (Invitrogen) was added to Ba/F3 cell lines in complete RPMI. To select for EGFR positive cell lines, cells were stained with PE-EGFR (Biolegend) and sorted by FACS. After sorting, EGFR positive cells were maintained in RPMI containing 10% FBS, 1% penicillin/streptomycin, and 1 ng/ml EGF to support cell viability. Drug screening was performed as previously described^41,42. Shortly, cells were plated in 384-well plates (Greiner Bio-One) at 2000-3000 cells per well in technical triplicate. Seven different concentrations of TKIs or DMSO vehicle were added to reach a final volume of 40 μL per well. After 72 hours, 11 μL of Cell Titer Glo (Promega) was added to each well. Plates were incubated for a minimum of 10 minutes, and bioluminescence was determined using a FLUOstar OPTIMA plate reader (BMG LABTECH). Raw bioluminescence values were normalized to DMSO control treated cells, and values were plotted in GraphPad Prism. […] Drug screens were performed in technical triplicate on each plate and either duplicate or triplicate biological replicates.

[3] = biological target: T3, EGFR E709_T710del insD (Homo sapiens, UniProt P00533, DEL709-709/T710D)
T3 construct: expressed in transfected cells; host or cells: Ba/F3
Description: as §1, §2, §3

[4] = biological target: T4, EGFR G719A L861Q (Homo sapiens, UniProt P00533, G719A/L861Q)
T4 construct: expressed in transfected cells; host or cells: Ba/F3

[5] = biological target: T5, EGFR L858R S784F (Homo sapiens, UniProt P00533, L858R/S784F); conditions: Classical-Like, 72 hours
T5 construct: expressed in transfected cells; host or cells: Ba/F3 cells, retroviral pBabe-Puro vector (vector made by GeneScript from EGFR L858R)

[6] = biological target: T6, EGFR L858R (Homo sapiens, UniProt P00533, L858R); conditions: Classical-Like, 72 hours
T6 construct: expressed in transfected cells; host or cells: Ba/F3 cells, retroviral pBabe-Puro vector

[7] = biological target: T7, EGFR Ex19del G796S (Homo sapiens, UniProt P00533, DEL746-750/G796S)
T7 construct: expressed in transfected cells; host or cells: Ba/F3
Description: as §1, §2, §3

[8] = biological target: T8, EGFR L861R (Homo sapiens, UniProt P00533, L861R); conditions: Classical-Like, 72 hours
T8 construct: expressed in transfected cells; host or cells: Ba/F3 cells, retroviral pBabe-Puro vector (vector made by GeneScript from EGFR WT)

[9] = biological target: T9, EGFR Ex19del T790M C797S (Homo sapiens, UniProt P00533, C797S/DEL746-750/T790M); conditions: T790M-like-3R, 72 hours
T9 construct: expressed in transfected cells; host or cells: Ba/F3

[10] = biological target: T10, EGFR R776H (Homo sapiens, UniProt P00533, R776H)
T10 construct: host or cells: Ba/F3

[11] = biological target: T11, EGFR L833F (Homo sapiens, UniProt P00533, L833F); conditions: Classical-Like, 72 hours
T11 construct: expressed in transfected cells; host or cells: Ba/F3 cells, retroviral pBabe-Puro vector
Description: (§4) Data represent the ratio of the IC50 value for a given TKI for cells with a classical-like EGFR mutation to the IC50 value for cells with wildtype EGFR.
as §2
(§5) After 48-72 hours of transduction, 2 μg/ml puromycin (Invitrogen) was added to Ba/F3 cell lines in complete RPMI. To select for EGFR positive cell lines, cells were stained with PE-EGFR (Biolegend) and sorted by FACS. After sorting, EGFR positive cells were maintained in RPMI containing 10% FBS, 1% penicillin/streptomycin, and 1 ng/ml EGF to support cell viability. […] Shortly, cells were plated in 384-well plates (Greiner Bio-One) at 2000-3000 cells per well in technical triplicate. Seven different concentrations of TKIs or DMSO vehicle were added to reach a final volume of 40 μL per well. After 72 hours, 11 μL of Cell Titer Glo (Promega) was added to each well. Plates were incubated for a minimum of 10 minutes, and bioluminescence was determined using a FLUOstar OPTIMA plate reader (BMG LABTECH). Raw bioluminescence values were normalized to DMSO control treated cells, and values were plotted in GraphPad Prism. […] Drug screens were performed in technical triplicate on each plate and either duplicate or triplicate biological replicates.

[12] = biological target: T12, EGFR G719A T790M (Homo sapiens, UniProt P00533, G719A/T790M); conditions: T790M-like-3S, 72 hours
T12 construct: expressed in transfected cells; host or cells: Ba/F3

[13] = biological target: T13, EGFR Ex19del G724S (Homo sapiens, UniProt P00533, DEL746-750/G724S)
T13 construct: expressed in transfected cells; host or cells: Ba/F3

[14] = biological target: T14, EGFR L858R T790M L718V (Homo sapiens, UniProt P00533, L718V/L858R/T790M); conditions: T790M-like-3R, 72 hours
T14 construct: expressed in transfected cells; host or cells: Ba/F3
Description: (§6) Data represent the ratio of the IC50 value for a given TKI for cells with a T790M-like-3R EGFR mutation to the IC50 value for cells with wildtype EGFR.
as §2
(§7) After 48-72 hours of transduction, 2 μg/ml puromycin (Invitrogen) was added to Ba/F3 cell lines in complete RPMI. To select for EGFR positive cell lines, cells were stained with PE-EGFR (Biolegend) and sorted by FACS. After sorting, EGFR positive cells were maintained in RPMI containing 10% FBS, 1% penicillin/streptomycin, and 1 ng/ml EGF to support cell viability. […] Shortly, cells were plated in 384-well plates (Greiner Bio-One) at 2000-3000 cells per well in technical triplicate. Seven different concentrations of TKIs or DMSO vehicle were added to reach a final volume of 40 μL per well. After 72 hours, 11 μL of Cell Titer Glo (Promega) was added to each well. Plates were incubated for a minimum of 10 minutes, and bioluminescence was determined using a FLUOstar OPTIMA plate reader (BMG LABTECH). Raw bioluminescence values were normalized to DMSO control treated cells, and values were plotted in GraphPad Prism. […] Drug screens were performed in technical triplicate on each plate and either duplicate or triplicate biological replicates. […] Statistical differences between groups were determined by ANOVA as described in the figure legends.

[15] = biological target: T15, EGFR L858R/T790M/C797S (Homo sapiens, UniProt P00533, C797S/L858R/T790M); conditions: T790M-like-3R, 72 hours
T15 construct: expressed in transfected cells; host or cells: Ba/F3

[16] = biological target: T16, EGFR Ex19del (Homo sapiens, UniProt P00533, DEL746-750); conditions: Classical-Like, 72 hours
T16 construct: expressed in transfected cells; host or cells: Ba/F3 cells, retroviral pBabe-Puro vector
Description: as §4, §2, §5

[17] = biological target: T17, EGFR L858R/T790M (Homo sapiens, UniProt P00533, L858R/T790M); conditions: T790M-like-3S, 72 hours
T17 construct: expressed in transfected cells; host or cells: Ba/F3
Description: (§8) Data represent the ratio of the IC50 value for a given TKI for cells with a T790M-like-3S EGFR mutation to the IC50 value for cells with wildtype EGFR.
as §2, §3

[18] = biological target: T18, EGFR L718Q T790M (Homo sapiens, UniProt P00533, L718Q/T790M); conditions: T790M-like-3R, 72 hours
T18 construct: expressed in transfected cells; host or cells: Ba/F3
Description: as §6, §2, §7

[19] = biological target: T19, EGFR T725M (Homo sapiens, UniProt P00533, T725M); conditions: Classical-Like, 72 hours
T19 construct: expressed in transfected cells; host or cells: Ba/F3 cells, retroviral pBabe-Puro vector (vector made by GeneScript from EGFR WT)

[20] = biological target: T20, EGFR R776C (Homo sapiens, UniProt P00533, R776C)
T20 construct: host or cells: Ba/F3
Description: as §1, §2, §3

[21] = test system: EGFR I740dupIPVAK
Description: as §1, §2, §3

[22] = biological target: T21, EGFR Ex19del T790M (Homo sapiens, UniProt P00533, DEL746-750/T790M); conditions: T790M-like-3S, 72 hours
T21 construct: expressed in transfected cells; host or cells: Ba/F3

[23] = biological target: T22, EGFR S768I V774M (Homo sapiens, UniProt P00533, S768I/V774M)
T22 construct: host or cells: Ba/F3
Description: as §1, §2, §3

[24] = biological target: T23, EGFR A763insFQEA (Homo sapiens, UniProt P00533, INS763FQEA); conditions: Classical-Like, 72 hours
T23 construct: expressed in transfected cells; host or cells: Ba/F3 cells, retroviral pBabe-Puro vector

[25] = biological target: T24, EGFR L858R L718Q (Homo sapiens, UniProt P00533, L718Q/L858R)
T24 construct: host or cells: Ba/F3
Description: as §1, §2, §3

[26] = biological target: T25, EGFR Ex19del T790M L718V (Homo sapiens, UniProt P00533, DEL746-750/L718V/T790M); conditions: T790M-like-3S, 72 hours
T25 construct: expressed in transfected cells; host or cells: Ba/F3
Description: as §8, §2, §3

Row | Structure (SMILES) | ratio of IC50 for cells with mutant EGFR to IC50 for cells with wildtype EGFR (Mut/WT) [1] | ratio of IC50 for cells with mutant EGFR to IC50 for cells with wildtype EGFR (Mut/WT) [5] | ratio of IC50 for cells with mutant EGFR to IC50 for cells with wildtype EGFR (Mut/WT) [6] | ratio of IC50 for cells with mutant EGFR to IC50 for cells with wildtype EGFR (Mut/WT) [8] | ratio of IC50 for cells with mutant EGFR to IC50 for cells with wildtype EGFR (Mut/WT) [9] | ratio of IC50 for cells with mutant EGFR to IC50 for cells with wildtype EGFR (Mut/WT) [11] | ratio of IC50 for cells with mutant EGFR to IC50 for cells with wildtype EGFR (Mut/WT) [12] | ratio of IC50 for cells with mutant EGFR to IC50 for cells with wildtype EGFR (Mut/WT) [14] | ratio of IC50 for cells with mutant EGFR to IC50 for cells with wildtype EGFR (Mut/WT) [15] | ratio of IC50 for cells with mutant EGFR to IC50 for cells with wildtype EGFR (Mut/WT) [17] | ratio of IC50 for cells with mutant EGFR to IC50 for cells with wildtype EGFR (Mut/WT) [18] | ratio of IC50 for cells with mutant EGFR to IC50 for cells with wildtype EGFR (Mut/WT) [19] | ratio of IC50 for cells with mutant EGFR to IC50 for cells with wildtype EGFR (Mut/WT) [24] | further results
1 | CNC(=O)CN1CCC(Oc2cc3c(Nc4cccc(Cl)c4F)ncnc3cc2OC)CC1 [Sapatinib] | 1.596 | 0.06664 | 0.0006817 | 0.002811 | 17.13 | 0.006619 | 54.78 | 41.48 | 66.82 | 38.86 | 54.78 | 0.00667 | 0.3137 | ratio of IC50 for cells with mutant EGFR to IC50 for cells with wildtype EGFR (Mut/WT) ([2]; PACC, L718Q, Ba/F3, 72 hours): 2.03; ratio of IC50 for cells with mutant EGFR to IC50 for cells with wildtype EGFR (Mut/WT) ([3]; PACC, E709_T710del insD, Ba/F3, 72 hours): 1.754; ratio of IC50 for cells with mutant EGFR to IC50 for cells with wildtype EGFR (Mut/WT) ([4]; PACC, G719A L861Q, Ba/F3, 72 hours): 0.04615; ratio of IC50 for cells with mutant EGFR to IC50 for cells with wildtype EGFR (Mut/WT) ([7]; PACC, Ex19del G796S, Ba/F3, 72 hours): 3.423; ratio of IC50 for cells with mutant EGFR to IC50 for cells with wildtype EGFR (Mut/WT) ([10]; PACC, R776H, Ba/F3, 72 hours): 0.001939; ratio of IC50 for cells with mutant EGFR to IC50 for cells with wildtype EGFR (Mut/WT) ([13]; PACC, Ex19del G724S, Ba/F3, 72 hours): 27.39; ratio of IC50 for cells with mutant EGFR to IC50 for cells with wildtype EGFR (Mut/WT) [16]: 0.0005535; ratio of IC50 for cells with mutant EGFR to IC50 for cells with wildtype EGFR (Mut/WT) ([20]; PACC, R776C, Ba/F3, 72 hours): 0.02012; ratio of IC50 for cells with mutant EGFR to IC50 for cells with wildtype EGFR (Mut/WT) ([21]; PACC, I740dupIPVAK, Ba/F3, 72 hours): 0.008351; ratio of IC50 for cells with mutant EGFR to IC50 for cells with wildtype EGFR (Mut/WT) [22]: 10.73; ratio of IC50 for cells with mutant EGFR to IC50 for cells with wildtype EGFR (Mut/WT) ([23]; PACC, S768I V774M, Ba/F3, 72 hours): 0.2648; ratio of IC50 for cells with mutant EGFR to IC50 for cells with wildtype EGFR (Mut/WT) ([25]; PACC, L858R L718Q, Ba/F3, 72 hours): 0.1961
2 | C=CC(=O)Nc1cc(Nc2nccc(-n3cc(CN(C)C)c(-c4ccccc4)n3)n2)c(OC)cc1N1CCOCC1 [Lazertinib] | 2.831 | 0.02456 | 0.03702 | 0.05091 | 26.17 | 0.08625 | 0.00108 | 0.5404 | 23.29 | 0.0336 | 3.513 | 0.004466 | 0.03797 | ratio of the IC50 value for cells with a PACC EGFR mutation to the IC50 value for cells with wildtype EGFR ([2]; Ba/F3 cells, EGFR L718Q (PACC), Mut/WT): 5.442; ratio of the IC50 value for cells with a PACC EGFR mutation to the IC50 value for cells with wildtype EGFR ([3]; Ba/F3 cells, EGFR E709_T710del insD (PACC), Mut/WT): 0.5663; ratio of the IC50 value for cells with a PACC EGFR mutation to the IC50 value for cells with wildtype EGFR ([4]; Ba/F3 cells, EGFR G719A L861Q (PACC), Mut/WT): 1.406; ratio of the IC50 value for cells with a PACC EGFR mutation to the IC50 value for cells with wildtype EGFR ([7]; Ba/F3 cells, EGFR Ex19del G796S (PACC), Mut/WT): 1.423; ratio of the IC50 value for cells with a PACC EGFR mutation to the IC50 value for cells with wildtype EGFR ([10]; Ba/F3 cells, EGFR R776H (PACC), Mut/WT): 0.6077; ratio of IC50 for cells with mutant EGFR to IC50 for cells with wildtype EGFR (Mut/WT) [26]: 0.4667; ratio of the IC50 value for cells with a PACC EGFR mutation to the IC50 value for cells with wildtype EGFR ([13]; Ba/F3 cells, EGFR Ex19del G724S (PACC), Mut/WT): 1.782; ratio of the IC50 value for cells with a PACC EGFR mutation to the IC50 value for cells with wildtype EGFR ([20]; Ba/F3 cells, EGFR R776C (PACC), Mut/WT): 1.504; ratio of the IC50 value for cells with a PACC EGFR mutation to the IC50 value for cells with wildtype EGFR ([21]; Ba/F3 cells, EGFR I740dupIPVAK (PACC), Mut/WT): 0.2883; ratio of the IC50 value for cells with a PACC EGFR mutation to the IC50 value for cells with wildtype EGFR ([23]; Ba/F3 cells, EGFR S768I V774M (PACC), Mut/WT): 0.7678; ratio of the IC50 value for cells with a PACC EGFR mutation to the IC50 value for cells with wildtype EGFR ([25]; Ba/F3 cells, EGFR L858R L718Q (PACC), Mut/WT): 3.064

Source: US20240384350A1, “METHODS OF TREATING CANCER WITH KINASE INHIBITORS” (BOARD OF REGENTS, THE UNIVERSITY OF TEXAS SYSTEM, priority 2021, published 2024)
